According to US20160257697A1, “THIOPHENE-SUBSTITUTED TETRACYCLIC COMPOUNDS AND METHODS OFUSE THEREOF FOR THE TREATMENT OF VIRAL DISEASES” (priority 2013, published 2016):
Like-named read-outs stand apart in the source and are kept apart here.

Legend:
Test in all cases: microbe, parasite or virus in culture
Type in all cases: cell-based, Hepatitis C virus (HCV)
Settings in all cases: Replicon Assay A
HCV replicon 2B = test system: HCV replicon 2B
Procedure, shortened: (§1)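 HCV RNA levels were calculated from Ct values (minus intercept, divided by slope) of a Neo primer/probe standard curve, with cyclophilin quantified the same way. Cells were seeded at 2000/well and incubated with compound for 3 days in 5% serum and 0.5% DMSO.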

HCV replicon 1AY93H = test system: HCV replicon 1AY93H
Procedure, shortened: as §1

HCV replicon 1A = test system: HCV replicon 1A
Procedure, shortened: as §1

[1] = read-out: 2B IC50, HCV replicon 2B
[2] = read-out: 1A Y93H IC50, HCV replicon 1A Y93H
[3] = read-out: 1A Y93H IC50, replicon 1AY93H
[4] = Hepatitis C virus, read-out: 1A Y93H IC50, HCV replicon 1A Y93H

| Structure (SMILES) | IC50 (HCV replicon 2B; [1]) [nM] | IC50 (HCV replicon 1A; HCV replicon 1A) [nM] | IC50 (HCV replicon 2B; read-out: 2B IC50, replicon 2B) [nM] | IC50 (HCV replicon 1AY93H; [3]) [nM] | IC50 (HCV replicon 1A; replicon 1A) [nM] | also measured |
| --- | --- | --- | --- | --- | --- | --- |
| COC(=O)N[C@H](C(=O)N1CCC[C@H]1c1ncc(-c2cc(C)c3c(c2)OC(c2cc4c(s2)CCC4)n2c-3cc3cc(-c4cnc([C@@H]5CCCN5C(=O)[C@@H](NC(=O)OC)C5C[C@@H](C)O[C@@H](C)C5)[nH]4)ccc32)[nH]1)C(C)C (single isomer, unassigned) [Compound 550] | 0.0435 | 0.03 | – | – | – | IC50 (HCV replicon 1AY93H; [2]): 0.154 nM |
| COC(=O)N[C@H](C(=O)N1CCC[C@H]1c1ncc(-c2cc(F)c3c(c2)OC(c2ccc(CC(C)C)s2)n2c-3cc3cc(-c4cnc([C@@H]5CCCN5C(=O)[C@@H](NC(=O)OC)C(C)C)[nH]4)ccc32)[nH]1)C(C)C (single isomer, unassigned) [Compound 521] | 3.49 | 0.00652 | – | – | – | IC50 (HCV replicon 1AY93H; [2]): 0.695 nM |
| COC(=O)NC(C(=O)N1CCC[C@H]1c1ncc(-c2ccc3c(c2)cc2n3C(c3ccc(C(C)C)s3)Oc3cc(-c4cnc([C@@H]5CCCN5C(=O)[C@@H](NC(=O)OC)C(C)C)[nH]4)cc(C)c3-2)[nH]1)C1C[C@@H](C)O[C@@H](C)C1 (single isomer, unassigned) [Compound 365] | – | – | 0.154 | 0.38 | – | IC50 (HCV replicon 1A; Hepatitis C virus, replicon 1A): 0.0027 nM |
| COC(=O)NC(C(=O)N1CCC[C@H]1c1ncc(-c2ccc3c(c2)cc2n3C(c3ccc(C(C)C)s3)Oc3cc(-c4cnc([C@@H]5CCCN5C(=O)[C@@H](NC(=O)OC)C(C)C)[nH]4)cc(F)c3-2)[nH]1)C1CCOC(C)(C)C1 (single isomer, unassigned) [Compound 239] | – | – | 9.48 | 6.6 | 0.0982 | – |
| COC(=O)N[C@H](C(=O)N1CCC[C@H]1c1ncc(-c2ccc3c(c2)OC(c2cc4sccc4s2)n2c-3cc3cc(-c4c[nH]c([C@@H]5C[C@H]6C[C@H]6N5C(=O)[C@@H](NC(=O)OC)C(C)C)n4)ccc32)[nH]1)C(C)C (single isomer, unassigned) [Compound 718] | 0.82 | 0.0024 | – | – | – | IC50 (HCV replicon 1AY93H; [2]): 0.11 nM |
| CCc1ccc(C2Oc3cc(-c4cnc([C@@H]5CCCN5C(=O)C(NC(=O)OC)C5C[C@@H](C)O[C@@H](C)C5)[nH]4)cc(F)c3-c3cc4cc(-c5cnc([C@@H]6CCCN6C(=O)[C@@H](NC(=O)OC)C(C)C)[nH]5)ccc4n32)s1 (single isomer, unassigned) [Compound 154] | – | – | 0.55 | 0.36 | 0.0017 | – |
| COC(=O)NC(C(=O)N1[C@@H]2C[C@@H]2C[C@H]1c1ncc(-c2ccc3c(c2)cc2n3C(c3cc4ccccc4s3)Oc3cc(-c4cnc([C@@H]5CCCN5C(=O)[C@@H](NC(=O)OC)C(C)C)[nH]4)cc(F)c3-2)[nH]1)C1C[C@@H](C)O[C@@H](C)C1 (single isomer, unassigned) [Compound 648] | 1.7 | 0.0036 | – | – | – | IC50 (HCV replicon 1AY93H; [4]): 2.04 nM |
| COC(=O)N[C@H](C(=O)N1CCC[C@H]1c1ncc(-c2cc(F)c3c(c2)OC(c2cc4nccnc4s2)n2c-3cc3cc(-c4cnc([C@@H]5CCCN5C(=O)[C@@H](NC(=O)OC)C(C)C)[nH]4)ccc32)[nH]1)C(C)C (single isomer, unassigned) [Compound 47] | – | – | 0.77 | 1.54 | – | IC50 (HCV replicon 1A; Hepatitis C virus, replicon 1A): 0.0016 nM |
| CCc1ccc(C2Oc3cc(-c4cnc([C@@H]5CCCN5C(=O)[C@@H](NC(=O)OC)C(C)C)[nH]4)cc(F)c3-c3cc4cc(-c5cnc([C@@H]6C[C@@H](F)CN6C(=O)C(NC(=O)OC)C6CCOC(C)(C)C6)[nH]5)ccc4n32)s1 (single isomer, unassigned) [Compound 254] | – | – | 3.49 | 0.12 | 0.0011 | – |
| COC(=O)NC(C(=O)N1CCC[C@H]1c1ncc(-c2ccc3c(c2)cc2n3C(c3ccc(C(C)C)s3)Oc3cc(-c4cnc([C@@H]5CCCN5C(=O)[C@@H](NC(=O)OC)C(C)C)[nH]4)cc(F)c3-2)[nH]1)C1CCOC(C)(C)C1 (single isomer, unassigned) [Compound 243] | – | – | 6.81 | 0.87 | 0.0015 | – |
| COC(=O)NC(C(=O)N1CCC[C@H]1c1ncc(-c2ccc3c(c2)cc2n3C(c3cc(C)c(C)s3)Oc3cc(-c4cnc([C@@H]5CCCN5C(=O)[C@@H](NC(=O)OC)C5CCOCC5)[nH]4)cc(F)c3-2)[nH]1)C(C)(C)F (single isomer, unassigned) [Compound 129] | – | – | 1.17 | 0.8 | 0.001 | – |
| COC(=O)NC(C(=O)N1CCC[C@H]1c1ncc(-c2ccc3c(c2)cc2n3C(c3ccc(C4CC4)s3)Oc3cc(-c4cnc([C@@H]5CCCN5C(=O)[C@@H](NC(=O)OC)C(C)C)[nH]4)cc(F)c3-2)[nH]1)C1CN(C(=O)OC)C1 (single isomer, unassigned) [Compound 227] | – | – | 0.17 | 0.15 | 0.0019 | – |
| CCc1ccc(C2Oc3cc(-c4cnc([C@@H]5CCCN5C(=O)[C@@H](NC(=O)OC)C(C)C)[nH]4)cc(F)c3-c3cc4cc(-c5cnc([C@@H]6C[C@H]7C[C@H]7N6C(=O)C(NC(=O)OC)C6C[C@@H](C)O[C@@H](C)C6)[nH]5)ccc4n32)s1 (single isomer, unassigned) [Compound 194] | – | – | – | – | – | IC50 (HCV replicon 2B; Hepatitis C virus, read-out: 2B IC50 (nM), replicon 2B): 0.63 nM; IC50 (HCV replicon 1AY93H; Hepatitis C virus, read-out: 1A Y93H IC50 (nM), replicon 1AY93H): 0.095 nM; IC50 (HCV replicon 1A; Hepatitis C virus, replicon 1A): 0.0019 nM |
| COC(=O)N[C@H](C(=O)N1CCC[C@H]1c1ncc(-c2cc(F)c3c(c2)OC(c2ccc(C#CC4CC4)s2)n2c-3cc3cc(-c4cnc([C@@H]5CCCN5C(=O)[C@@H](NC(=O)OC)C(C)C)[nH]4)ccc32)[nH]1)C(C)C (single isomer, unassigned) [Compound 85] | – | – | 1 | 0.41 | – | IC50 (HCV replicon 1A; Hepatitis C virus, replicon 1A): 0.0011 nM |
| CCc1ccc(C2Oc3cc(-c4cnc([C@@H]5CCCN5C(=O)[C@@H](NC(=O)OC)C(C)C)[nH]4)cc(F)c3-c3cc4cc(-c5cnc([C@@H]6CCCN6C(=O)C(NC(=O)OC)C6CCOC(C)(C)C6)[nH]5)ccc4n32)s1 (single isomer, unassigned) [Compound 149] | – | – | 24.8 | 25.9 | 0.129 | – |
| [2H]C(C)(C)C(NC(=O)OC)C(=O)N1CCC[C@H]1c1ncc(-c2cc(F)c3c(c2)OC(c2ccc(C4CC4)s2)n2c-3cc3cc(-c4cnc([C@@H]5CCCN5C(=O)[C@@H](NC(=O)OC)C(C)C)[nH]4)ccc32)[nH]1 (single isomer, unassigned) [Compound 29] | – | – | 1.98 | 1.32 | 0.0024 | – |
| COC(=O)N[C@H](C(=O)N1CCC[C@H]1c1ncc(-c2cc(F)c3c(c2)OC(c2scc4c2OCCO4)n2c-3cc3cc(-c4cnc([C@@H]5C[C@H](F)CN5C(=O)[C@@H](NC(=O)OC)C(C)C)[nH]4)ccc32)[nH]1)C(C)C (single isomer, unassigned) [Compound 527] | 33.3 | 0.0155 | – | – | – | IC50 (HCV replicon 1AY93H; [2]): 3.06 nM |
| COC(=O)NC(C(=O)N1CCC[C@H]1c1ncc(-c2ccc3c(c2)cc2n3C(c3cc4ccccc4s3)Oc3cc(-c4cnc([C@@H]5CCCN5C(=O)[C@@H](NC(=O)OC)C(C)C)[nH]4)cc(F)c3-2)[nH]1)C1C[C@@H](C)O[C@@H](C)C1 (single isomer, unassigned) [Compound 642] | 0.199 | 0.0019 | – | – | – | IC50 (HCV replicon 1AY93H; [2]): 0.066 nM |
| COC(=O)N[C@H](C(=O)N1CCC[C@H]1c1nc(-c2ccc3c(c2)OC(c2ccc(Cl)s2)n2c-3cc3cc(-c4c[nH]c([C@@H]5CCCN5C(=O)[C@@H](NC(=O)OC)C5CCOCC5)n4)ccc32)c[nH]1)C1CCOCC1 (mixture of isomers) [Compound 727] | – | – | – | – | – | IC50 (HCV replicon 2B; Hepatitis C virus, read-out: 2B IC50, HCV replicon 2B): 0.027 nM; IC50 (HCV replicon 1AY93H; [4]): 0.056 nM; IC50 (HCV replicon 1A; Hepatitis C virus, HCV replicon 1A): 0.024 nM |
